Source: ChEMBL document CHEMBL1201862, “PubChem BioAssay data set” (2004)
Activity calls are given as the source filed them. Rule as the data show it: actives have a measured IC50 and inactives only a lower limit.

Molecular target: Envelope glycoprotein gp160 (Human immunodeficiency virus 1, UniProt Q6QLK5)
Experiment: cell-free HIV fusion peptide-binding blockers – biochemical, uHTS, fluorescence dequenching, […] (AID 1986)

Sequence of Envelope glycoprotein gp160 (Q6QLK5 whole entry, the tested form may be a part): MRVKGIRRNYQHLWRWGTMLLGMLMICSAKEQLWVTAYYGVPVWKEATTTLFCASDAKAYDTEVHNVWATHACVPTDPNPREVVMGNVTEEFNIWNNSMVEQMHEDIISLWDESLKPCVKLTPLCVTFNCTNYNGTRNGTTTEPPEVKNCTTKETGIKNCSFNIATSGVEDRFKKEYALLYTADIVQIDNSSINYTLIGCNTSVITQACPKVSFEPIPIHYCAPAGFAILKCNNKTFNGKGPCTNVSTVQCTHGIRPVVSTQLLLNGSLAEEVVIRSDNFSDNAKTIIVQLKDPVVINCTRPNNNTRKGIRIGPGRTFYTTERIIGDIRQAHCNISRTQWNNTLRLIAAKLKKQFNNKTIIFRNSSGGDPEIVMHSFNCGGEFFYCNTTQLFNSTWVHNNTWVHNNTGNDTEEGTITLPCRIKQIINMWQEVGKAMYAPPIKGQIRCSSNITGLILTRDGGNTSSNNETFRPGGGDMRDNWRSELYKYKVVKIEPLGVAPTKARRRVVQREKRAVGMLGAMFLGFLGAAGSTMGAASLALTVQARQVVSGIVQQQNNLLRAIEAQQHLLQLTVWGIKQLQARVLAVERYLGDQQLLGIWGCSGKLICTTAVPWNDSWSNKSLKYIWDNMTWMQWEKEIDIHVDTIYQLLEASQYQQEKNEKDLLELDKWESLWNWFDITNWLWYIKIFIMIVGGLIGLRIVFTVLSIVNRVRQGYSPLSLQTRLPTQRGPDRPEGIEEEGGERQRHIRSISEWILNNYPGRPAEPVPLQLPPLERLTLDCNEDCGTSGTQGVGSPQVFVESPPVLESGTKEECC

Row | Structure (SMILES) | IC50
1 | COc1cc(/C=C2\C(=N)N3N=C(S(C)(=O)=O)SC3=NC2=O)ccc1OC(=O)c1ccco1 | 21.9 µM (active)
2 | O=C(O)COc1ccccc1/C=N/NC(=O)CSc1nnc(SCc2cccc3ccccc23)s1 | 26.6 µM (active)
